# Laboratory results from PubChem BioAssay AID1259426 (Fisher Drug Discovery Resource Center, 2018).
# “And” between values parts separate entries of the source, which are not always exact repeats. Identical values can stand only once. The source made the active and inactive calls.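 The calls were made as follows: active = EC50 under a set limit in control cells lacking the mosquito receptor, marking a fluorescence artifact; inactive = the rest.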
# Biological target: HEK293 Galpha15/GCaMP6s without NPYLR7, calcium fluorescence
# Assay: calcium response in NPYLR7-null HEK293 cells, dose response, counter-screen for mosquito NPYLR7 agonist project, cell-based, HEK293 lacking NPYLR7 (AID 1259426);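 also: potency for a rise in fluorescence over baseline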
row,Compound,EC50
1,O=C1SC(Nc2ccc(Br)cc2)C(=O)N1c1ccccc1 (centres undefined),17.9 µM
2,Cc1ccc2nc(Cn3cnc4c(Cl)cc(Cl)cc4c3=O)cc(=O)n2c1,> 20 µM (inactive)
3,CSc1nnc2c(n1)OC(c1ccc(OC(=O)c3ccc(Br)cc3)cc1)Nc1ccccc1-2 (centres undefined),> 20 µM (inactive)
4,C[C@@H]1OC(O[C@H]2[C@H](OC(=O)[C@]34CCC(C)(C)CC3C3=CCC5[C@@]6(C)CC[C@H](OC7O[C@@H](C)[C@H](O[C@@H]8OC[C@@H](O)[C@H](O)[C@H]8O)[C@@H](O)[C@H]7O)C(C)(C)C6CC[C@@]5(C)[C@]3(C)CC4O)OC[C@H](O)[C@H]2O)[C@H](O)[C@H](O)[C@H]1O[C@@H]1O[C@H](CO)[C@@H](O)[C@H](O)[C@H]1O (some centres undefined),10.3 µM
5,CN1C=CC(=C/C=C2/C=Nc3ccccc32)C=C1,9.41 µM
6,Oc1oc(-c2ccccc2Br)nc1C=Nc1ccccc1,10.6 µM
7,CC(C)Nc1ccc(NS(=O)(=O)NCc2ccccc2)cn1,> 20 µM (inactive)
8,CCCN1CCc2c(sc3c2c(NC(CC)CO)nc2nnnn23)C1 (centres undefined),> 20 µM (inactive)
9,CCOC(=O)c1c(-c2ccccc2)csc1N=Cc1nc(-c2ccccc2)oc1O,> 20 µM (inactive)
10,COc1ccc(C2=NN(C(=O)CN3CCOCC3)C(c3nc4ccccc4[nH]3)C2)cc1 (centres undefined),> 20 µM (inactive)
11,O=C1CSC(=S)N1N=Cc1cc(Br)c(O)c(Br)c1,2.31 µM
12,O=C(CN1C(=O)SC(=Cc2ccc(N3CCCCCC3)o2)C1=O)N1CCCCCC1,> 20 µM (inactive)
13,CCOC(=O)C1=C(C)NC(C)=C(C(=O)OCC)C1c1cc(Cl)ccc1OC(F)F,14.7 µM
14,Cn1c(C(C#N)=Cc2c(F)c(F)c(F)c(F)c2F)nc2ccccc21,< 0.039 µM
15,N#C/C(=C\c1ccc(O)c(O)c1)C(=O)NCc1ccccc1,> 20 µM (inactive)
16,COc1cc(C=C(C#N)S(=O)(=O)c2ccc(F)cc2)cc(Br)c1O,> 20 µM (inactive)
17,N#C/C(=C/c1ccc(N2CCCCC2)o1)c1cccc(F)c1,> 20 µM (inactive)
18,N#CC(C#N)=C1C=C2C=C(N3CCc4ccccc4C3)CCC2CC1 (centres undefined),> 20 µM (inactive)
19,CCOC(=O)C1CCCN(c2nc3nonc3nc2N2CCSCC2)C1 (centres undefined),> 20 µM (inactive)
20,CC(=O)Nc1sc2c(c1-c1nc3ccccc3s1)CCN(Cc1ccccc1)C2,3.18 µM
21,CNC(=O)NC(=O)CCN1CC(c2ccccc2Cl)c2c([nH]c3ccccc23)C1C (centres undefined),> 20 µM (inactive)
22,COCCCN(Cc1ccc(C(C)(C)C)cc1)Cc1cccn1Cc1cccc(C)c1,> 20 µM (inactive)
23,COc1cc(/C=C/c2nc3ccccc3o2)cc(Cl)c1O,1.7 µM
24,C=CCN1C=CC(=CC=C(C#N)C#N)C=C1,2.17 µM
25,O=C1C(=Cc2ccccc2O)NC(=S)N1Cc1ccco1,0.955 µM
26,Nc1ccc(-c2nc3cc(N)cc(Cl)c3o2)cc1,17 µM

row,Compound,EC50
1,CC(C)OC(=O)C(C(=O)C(F)(F)F)c1cc(NS(=O)(=O)c2ccc(Cl)cc2)ccc1O (centres undefined),> 20 µM (inactive)
2,O=C1c2ccccc2C(=O)C1c1ccnc2ccccc12,17.3 µM
3,CCC(CO)[n+]1c(C)cc(C=C2Sc3ccccc3N2Cc2ccccc2)cc1C (centres undefined),> 20 µM (inactive)
4,CC(C)C(=O)Nc1sc2c(c1-c1nc3ccccc3s1)CCN(C)C2,> 20 µM (inactive)
5,COc1ccc(CCN2COc3ccc4c(c3C2)O/C(=C\c2ccncc2)C4=O)cc1OC,14.8 µM
6,N#CC1C(=N)SC(=N)C(C#N)C1c1ccccc1F (centres undefined),10.2 µM
7,C=CCNc1ccc2c3c(cccc13)C(=O)N(c1ccccc1)C2=O,0.0583 µM
8,O=C(c1nccc2ccccc12)N1CCN(CC2CCCC2)CC1,> 20 µM (inactive)
9,CCN(CC)c1ccc2cc(C(N)=O)/c(=N\NC(N)=S)oc2c1,< 0.039 µM
10,Cc1ccc(Cl)c(Oc2cc(N3CCN(C(=O)c4ccc(Cl)c(Cl)c4)CC3)ncn2)c1,> 20 µM (inactive)
11,Cc1csc(-c2cc3ccc(O)c(CN4CCN(CCO)CC4)c3oc2=O)n1,< 0.039 µM
12,O=C1c2cccc3c(NCC(O)CCl)ccc(c23)C(=O)N1c1ccccc1 (centres undefined),< 0.039 µM
13,N#C/C(=C\c1ccc(O)c(O)c1)C(=O)Nc1ccccc1,> 20 µM (inactive)
14,O=C1NC(c2ccc3c(c2)OCO3)C(C(=O)c2ccccc2)C(O)(C(F)(F)F)N1 (centres undefined),> 20 µM (inactive)
15,N#CC1C(=N)SC(=N)C(C#N)C1c1ccc(Cl)cc1Cl (centres undefined),7.76 µM
16,CN=c1nc(-c2ccccc2)n(-c2ccccc2)s1,> 20 µM (inactive)
17,OCCN(CCO)c1nc(N2CCCCC2)c2nc(N(CCO)CCO)nc(N3CCCCC3)c2n1,3.58 µM and 1.94 µM
18,N#CC1C(=N)SC(=N)C(C#N)C1c1cccc(F)c1 (centres undefined),7.03 µM
19,O=C(O)CN1C(=O)/C(=C\c2cc([N+](=O)[O-])cc(Br)c2O)SC1=S,1.07 µM
20,Cc1cc(O)c(CN2CCN(CCO)CC2)c2c1C(=O)/C(=C/c1cc3ccccc3o1)O2,7.38 µM
21,CC(=O)Oc1c(/C=C(\C#N)C(N)=O)[nH]c2ccccc12,6.22 µM
22,COc1ccc(NC(=O)CN2C(=O)c3ccccc3NC23CCN(C)CC3)cn1,> 20 µM (inactive)
23,CC1=CC(C)C(C(=O)O)C(C(=O)O)C1 (centres undefined),> 20 µM (inactive)
24,CNC[C@@H](O)c1ccc(O)c(O)c1,< 0.039 µM
25,C=CCN1C(=O)C(Cc2ccc(OC)cc2)S/C1=N/N=C\c1cccs1 (centres undefined),> 20 µM (inactive)
26,COc1ccc(/C=C2\Oc3c(ccc4c3CN(Cc3ccncc3)CO4)C2=O)cc1,8.8 µM

row,Compound,EC50
1,CC(C)CN1C(=O)C(=Cc2c(N3CCN(CCO)CC3)nc3ccccn3c2=O)SC1=S,> 20 µM (inactive)
2,CCC1CN(C(=O)c2cc(C(C)C)on2)CCC(=O)N1Cc1ccccc1 (centres undefined),> 20 µM (inactive)
3,Nc1c2c(nc3sc4c(c13)CCCC4)CCCCC2,> 20 µM (inactive)
4,Clc1ccc(-c2noc3c2CN(CCn2cc(Cl)cn2)CC3)cc1,15.4 µM
5,CCOC(=O)C1=C(O)/C(=C\c2ccc(N(C)C)cc2)SC1=Nc1ccc(OC)cc1OC,> 20 µM (inactive)
6,CCN(CC)CC[n+]1c(C)cc(C=C2Sc3ccccc3N2C)cc1C,> 20 µM (inactive)
7,CCOC=C(C#N)c1nc(C)cs1,2.43 µM
8,CCOC(=O)C1CCCN(CC(=O)N2N=C(c3ccccc3Cl)CC2c2ccc(Cl)cc2)C1 (centres undefined),> 20 µM (inactive)
9,CCN(CC)Cc1c(O)cc(C)c2c1O/C(=C\c1cc3ccccc3o1)C2=O,9.1 µM
10,CCN(CC)c1ccc(/C=C2\SC(=S)N(CCS(=O)(=O)O)C2=O)cc1,0.039 µM
11,O=C(O)c1csc(CSc2nnc(-c3ccncc3)n2-c2cccc(C(F)(F)F)c2)n1,> 20 µM (inactive)
12,C(/C=C/CC=Nc1ccccc1)=Nc1ccccc1,14.5 µM
13,CCCS(=O)(=O)N1CCN=C1SCc1ccccc1C,> 20 µM (inactive)
14,O=P1(Nc2cc(C(F)(F)F)ccc2Cl)C=C(c2ccccc2)OC(c2ccccc2)=C1,> 20 µM (inactive)
15,CCN(CC)C1=CC2=CC(=C(C#N)C#N)CCC2CC1 (centres undefined),< 0.039 µM
16,N#CC1C(=N)SC(=N)C(C#N)C1c1cccc(O)c1 (centres undefined),10.1 µM
17,COc1ccc(OC)c(CCNc2nc3cnc(-c4cccc5ccccc45)cc3n2C)c1,> 20 µM (inactive)
18,CCn1c(O)c(C=Nc2c(C#N)c(C)c(C)n2C2CCCCC2)c(=O)n(CC)c1=S,1.31 µM
19,O=c1nc2n3ccc(-c4ccncc4)cc3ncc-2s1,18.3 µM
20,CCOc1ccc(/C=C2N=C(/C=C/c3ccccc3)OC/2=O)cc1,> 20 µM (inactive)
21,O=C1SC(Nc2ccc(I)cc2)C(=O)N1c1ccccc1 (centres undefined),18.1 µM
22,Cc1cccc(C2=N/C(=C\c3cc4cc5c6c(c4oc3=O)CCCN6CCC5)C(=O)O2)c1,0.219 µM
23,O=C1/C(=C/c2ccc3c(c2)OCO3)Oc2c1ccc1c2CN(CC2CCCO2)CO1 (centres undefined),8.39 µM
24,COc1cc(OC)c(OC)cc1/C=C1/SC(=S)N(CC(=O)O)C1=O,5.82 µM
25,COc1cc(/C=C2\Oc3c(ccc4c3CN(CC3CCCO3)CO4)C2=O)cc(OC)c1OC (centres undefined),9.34 µM
26,O=C(O)CCn1c(O)c(C=C2C=Nc3ccccc32)sc1=S,12 µM

row,Compound,EC50
1,COC(=O)C(C)Sc1nc2sc3c(c2c(=O)n1C)CCC3 (centres undefined),> 20 µM (inactive)
2,N#CC(C#N)=C1C=C2C=C(N3CCCC3)CCC2CC1 (centres undefined),< 17.7 µM
3,Nc1ncnc2c1ncn2[C@@H]1O[C@H](CO)[C@H](O)C1O (some centres undefined),7.87 µM
4,COc1cccc(CNC2CC2)c1OCc1nc(CO)cs1,> 20 µM (inactive)
5,N#CC1C(=N)Oc2cc(O)ccc2C1c1ccncc1 (centres undefined),7.22 µM
6,CCOCCCN1C(=O)C(=Cc2ccccc2O)NC1=S,0.0898 µM
7,NCCNc1ccc2c3c(cccc13)C(=O)N(c1ccc(Cl)cc1)C2=O,0.47 µM
8,CC(C)NCC(O)c1ccc(O)c(O)c1 (centres undefined),< 0.039 µM
9,COc1cc(/C=C(/C#N)c2nc3cc(Cl)ccc3s2)ccc1O,> 20 µM (inactive)
10,Cc1nc(Sc2nnc3ccccn23)c2c3c(sc2n1)CCCC3,> 20 µM (inactive)
11,CC1C(=O)c2cccc3c(=O)n(-c4ccccc4)c(O)c(c23)C1=O (centres undefined),> 20 µM (inactive)
12,CC1CCCCC1OCCNC(=O)C1(c2ccc(F)cc2)CCC1 (centres undefined),> 20 µM (inactive)
13,COc1ccc(NC(=O)C2C=CCN2)cc1NC(=O)c1ccco1 (centres undefined),> 20 µM (inactive)
14,COC(=O)C1CCN(S(=O)(=O)c2c(F)cc(F)cc2Br)CC1,> 20 µM (inactive)
15,CC(=O)Nc1nc(COC(=O)c2[nH]c(C)c(C(=O)OC(C)C)c2C)cs1,> 20 µM (inactive)
16,CS(=O)(=O)Nc1nc2n(n1)C(c1ccccc1)CC(c1ccc(Cl)cc1)=N2 (centres undefined),> 20 µM (inactive)
17,CNC(=O)c1cnc(/C=C/c2csc(-c3ccsc3)n2)[nH]c1=O,> 20 µM (inactive)
18,CN1CCc2c(sc(NC(=O)Cc3ccccc3)c2-c2nc3ccccc3s2)C1,> 20 µM (inactive)
19,CCOc1cc(/C=C2\C(=N)N3N=CSC3=NC2=O)cc(Br)c1OC(=O)c1ccccc1,3.04 µM
20,OC=c1ccc2cccc3nc(C(F)(F)F)nc1c23,11.2 µM
21,CC1C(=O)N(c2cccc(F)c2)CCN1C(=O)C1CC1 (centres undefined),> 20 µM (inactive)
22,O=C(O)CN1C(=O)/C(=C\c2ccc(O)cc2)SC1=S,13.3 µM
23,CCCCC(CC)CN=C(N)NC(N)=NCCCCCCN=C(N)NC(N)=NCC(CC)CCCC (centres undefined),> 20 µM (inactive)
24,O=C(O)c1[nH]ncc1CN1CCc2onc(-c3ccc(C(F)(F)F)cc3)c2C1,> 20 µM (inactive)
25,O=C(O)CSc1ccc2c3c(cccc13)C(=O)c1ccccc1-2,0.294 µM
26,N#C/C(=C\c1ccc(O)c(O)c1)C(=O)NCCCc1ccccc1,> 20 µM (inactive)
